As a reminder, the IC50 is the concentration at which inhibition is half-maximal. A high value points to weaker potency in that assay.

The text below walks through data of the Kinase Knowledgebase extract (Sharma et al. 2016).

The target of the experiment is PIK3CG (human) (UniProt P48736). The experiment in a line: Inhibition of PIK3CG Kinase Activity.
Chain of PIK3CG (human) (P48736 whole entry, looked up): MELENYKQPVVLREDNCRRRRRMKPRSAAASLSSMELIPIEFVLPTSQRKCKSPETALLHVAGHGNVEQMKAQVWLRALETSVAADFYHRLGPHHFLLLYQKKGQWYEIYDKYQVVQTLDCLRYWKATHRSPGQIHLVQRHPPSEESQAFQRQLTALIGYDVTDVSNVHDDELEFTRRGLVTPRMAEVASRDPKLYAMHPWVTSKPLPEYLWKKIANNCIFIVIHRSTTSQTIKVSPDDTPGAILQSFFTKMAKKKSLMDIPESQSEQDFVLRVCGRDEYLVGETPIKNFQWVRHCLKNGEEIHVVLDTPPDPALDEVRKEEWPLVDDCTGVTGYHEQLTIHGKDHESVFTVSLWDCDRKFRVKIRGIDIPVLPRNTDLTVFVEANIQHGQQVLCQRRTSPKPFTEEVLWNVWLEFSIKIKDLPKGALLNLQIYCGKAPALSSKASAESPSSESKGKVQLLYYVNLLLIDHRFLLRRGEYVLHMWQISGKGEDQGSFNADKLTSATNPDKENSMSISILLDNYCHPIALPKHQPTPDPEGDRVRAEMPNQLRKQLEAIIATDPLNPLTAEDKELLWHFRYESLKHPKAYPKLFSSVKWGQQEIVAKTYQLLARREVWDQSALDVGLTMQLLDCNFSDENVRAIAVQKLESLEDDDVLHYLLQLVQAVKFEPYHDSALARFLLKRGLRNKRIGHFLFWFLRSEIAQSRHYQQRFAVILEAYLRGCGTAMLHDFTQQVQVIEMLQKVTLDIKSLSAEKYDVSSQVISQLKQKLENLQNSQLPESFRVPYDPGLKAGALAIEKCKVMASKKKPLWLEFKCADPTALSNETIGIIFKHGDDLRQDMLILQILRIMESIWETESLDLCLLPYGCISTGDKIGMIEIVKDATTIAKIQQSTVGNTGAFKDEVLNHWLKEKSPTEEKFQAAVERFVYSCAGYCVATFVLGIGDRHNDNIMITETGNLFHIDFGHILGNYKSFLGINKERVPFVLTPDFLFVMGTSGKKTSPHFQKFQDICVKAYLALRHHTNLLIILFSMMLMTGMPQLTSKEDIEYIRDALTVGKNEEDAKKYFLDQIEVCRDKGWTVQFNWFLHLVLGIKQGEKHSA

`CC(=O)Nc1nc2c(s1)-c1c(c(C3CC3)nn1C1CCC(C(=O)NC3CCCCC3)CC1)CC2` (centres undefined) registered an IC50 below 600 nM.
The compound `CC(=O)Nc1nc2c(s1)-c1c(c(C3CC3)nn1-c1ccc(C(=O)NCC3CCN(C4CCCC4)CC3)c(Cl)c1)CC2` showed a concentration for half-maximal inhibition (IC50) below 600 nM.
`CC(=O)Nc1nc2c(s1)-c1c(c(C3CC3)nn1-c1ccc(C(=O)N(C)[C@H]3CC[C@@H](N(C)CC4CC4)CC3)cc1F)CC2` came in with an IC50 below 600 nM.
For `CC(=O)Nc1nc2c(s1)-c1c(c(C3CC3)nn1-c1ccc(C(=O)NC3CCN(CC4CCCCC4)CC3)cc1C)CC2` the value was below 600 nM.
Take `CC(=O)Nc1nc2c(s1)-c1c(c(C3CC3)nn1-c1ccc(C(=O)N(C)[C@H]3CC[C@@H](N(C)CC4CC4)CC3)c(Cl)c1)CC2`: the IC50 is below 600 nM.
Compound `CC(=O)Nc1nc2c(s1)-c1c(c(C3CC3)nn1-c1ccc(C(=O)N(C)[C@H]3CC[C@@H](N4CCCCC4)CC3)c(Cl)c1)CC2` yielded an IC50 below 600 nM.
Under `CC(=O)Nc1nc2c(s1)-c1c(c(C3CC3)nn1-c1ccc(C(=O)N3CCC(N4CCCC4)CC3)c(C)c1)CC2` stands below 600 nM; under `CNC(=O)c1ccc(-n2nc(C3(C)CC3)c3c2-c2sc(NC(C)=O)nc2CC3)c(Cl)c1`, below 600 nM.
Under `CNC(=O)c1ccc(-n2nc(C3CCC3)c3c2-c2sc(NC(C)=O)nc2CC3)c(Cl)c1` stands below 600 nM.
Take `CC(=O)Nc1nc2c(s1)-c1c(c(C3CC3)nn1-c1ccc(C(=O)N(C)C3CCN(C4CCCC4)C3)c(Cl)c1)CC2` (centres undefined): the IC50 is below 600 nM.
Turning to `CC(=O)Nc1nc2c(s1)-c1c(c(C3CC3)nn1-c1ccc(CC(=O)N[C@H]3CC[C@@H](N4CCCC4)CC3)cc1Cl)CC2`, the concentration for half-maximal inhibition (IC50) was below 600 nM.
Under `CC(=O)Nc1nc2c(s1)-c1c(c(C3CC3)nn1-c1ccc(C(=O)N(C)C3CCN(C)CC3)cc1Cl)CC2` stands below 600 nM.
The compound `CC(=O)Nc1nc2c(s1)-c1c(c(C3CC3)nn1-c1ccc(C(=O)NC3CCN(C4CCOCC4)CC3)c(F)c1)CC2` yielded a concentration for half-maximal inhibition (IC50) below 600 nM.
For `CC(=O)Nc1nc2c(s1)-c1c(c(C3CCCC3)nn1-c1ccccc1Cl)CC2`, the IC50 was below 600 nM.
`CC(=O)Nc1nc2c(s1)-c1c(c(C3CC3)nn1-c1ccc(C(=O)NC3CCN(C4CCCC4)CC3)cc1Cl)CC2` registered a half-inhibitory concentration (IC50) below 600 nM.
`CC(=O)Nc1nc2c(s1)-c1c(c(C3CC3)nn1-c1ccc(C(=O)NC3CCN(C4CCCC4)CC3)cc1C)CC2` showed a concentration for half-maximal inhibition (IC50) below 600 nM.
Turning to `CC(=O)Nc1nc2c(s1)-c1c(c(C3CC3)nn1-c1ccc(NCC3CCN(C)CC3)cc1Cl)CC2`, the IC50 is below 600 nM.
`CC(=O)Nc1nc2c(s1)-c1c(c(C3CC3)nn1-c1ccccc1C)CC2` returned a concentration for half-maximal inhibition (IC50) below 600 nM.
Under `CNC(=O)C1CCC(n2nc(C3CC3)c3c2-c2sc(NC(C)=O)nc2CC3)CC1` (centres undefined) stands below 600 nM; under `CC(=O)Nc1nc2c(s1)-c1c(c(C3CC3)nn1C1CCN(C(=O)[C@H]3CC[C@@H](N4CCCC4)CC3)CC1)CC2`, below 600 nM; under `CCCN1CC[C@@H](NC(=O)c2ccc(-n3nc(C4CC4)c4c3-c3sc(NC(C)=O)nc3CC4)c(C)c2)C1`, below 600 nM.
`CC(=O)Nc1nc2c(s1)-c1c(c(C3CC3)nn1-c1ccc(C(=O)N[C@H]3CC[C@@H](N4CCOCC4)CC3)c(C)c1)CC2` had a 50% inhibitory concentration (IC50) below 600 nM.
`CC(=O)Nc1nc2c(s1)-c1c(c(C3CC3)nn1-c1ccc(C(=O)N(C)[C@H]3CC[C@@H](N(C)CC4CCCC4)CC3)c(C)c1)CC2` had a concentration for half-maximal inhibition (IC50) below 600 nM.
For `CC(=O)Nc1nc2c(s1)-c1c(c(C3CC3)nn1-c1ccc(NCC3CCCCC3)cc1Cl)CC2` the value was below 600 nM.
For `CC(=O)Nc1nc2c(s1)-c1c(c(C3CC3)nn1-c1ccc(C(=O)N(C)Cc3ccncc3)cc1Cl)CC2` the value was below 600 nM; for `CC(=O)Nc1nc2c(s1)-c1c(c(C3CC3)nn1-c1ccc(C(=O)N[C@H]3CC[C@@H](N4CCCCC4)CC3)cc1Cl)CC2`, below 600 nM.
`CC(=O)Nc1nc2c(s1)-c1c(c(C3CC3)nn1-c1ccc(C(=O)N(C)[C@@H]3CCN(CC4CCCC4)C3)c(F)c1)CC2` showed an IC50 below 600 nM.
In the case of `CC(=O)Nc1nc2c(s1)-c1c(c(C3CC3)nn1-c1ccc(NCC3CCN(C(=O)OC(C)(C)C)CC3)cc1Cl)CC2`, the IC50 is below 600 nM.
`CC(=O)Nc1nc2c(s1)-c1c(c(C3CC3)nn1C1CCN(C(=O)N3CCN(C4CCCC4)CC3)CC1)CC2` returned a 50% inhibitory concentration (IC50) below 600 nM.
For the compound `CC(=O)Nc1nc2c(s1)-c1c(c(C3CC3)nn1-c1ccc(C(=O)NCC3CCN(C4CCCC4)CC3)cc1Cl)CC2`, the concentration for half-maximal inhibition (IC50) is below 600 nM.
`CC(=O)Nc1nc2c(s1)-c1c(c(C3CC3)nn1-c1ccc(C(=O)NC3CCN(CC4CCCC4)CC3)cc1C)CC2`: the 50% inhibitory concentration (IC50) was below 600 nM.
`CC(=O)Nc1nc2c(s1)-c1c(c(C3CC3)nn1-c1ccc(NCC3CCN(C4CCCC4)CC3)cc1Cl)CC2` had a half-maximal inhibitory concentration (IC50) below 600 nM.
As for `CC(=O)Nc1nc2c(s1)-c1c(c(C3CC3)nn1-c1ccc(C(=O)NC3CCN(C4CCCC4)CC3)cc1F)CC2`, the 50% inhibitory concentration (IC50) was below 600 nM.
For `CC(=O)Nc1nc2c(s1)-c1c(c(C3CC3)nn1-c1ccc(C(=O)NC[C@@H]3CCN(C4CCCC4)C3)c(Cl)c1)CC2` the value was below 600 nM.
`CC(=O)Nc1nc2c(s1)-c1c(c(C3CC3)nn1-c1ccc(C(=O)N[C@H]3CC[C@@H](N4CCCC4)CC3)c(C)c1)CC2` gave an IC50 below 600 nM.
`CCCN1CCC(NC(=O)c2ccc(-n3nc(C4CC4)c4c3-c3sc(NC(C)=O)nc3CC4)c(F)c2)CC1` had a half-maximal inhibitory concentration (IC50) below 600 nM.
The compound `CC(=O)Nc1nc2c(s1)-c1c(c(C3CC3)nn1-c1ccc(C(=O)N(C)[C@@H]3CCN(C4CCCC4)C3)c(F)c1)CC2` showed a concentration for half-maximal inhibition (IC50) below 600 nM.
The compound `CCCN1CCC(NC(=O)c2ccc(-n3nc(C4CC4)c4c3-c3sc(NC(C)=O)nc3CC4)c(Cl)c2)CC1` returned an IC50 below 600 nM.
In turn, `CC(=O)Nc1nc2c(s1)-c1c(c(C3CC3)nn1-c1ccc(C(=O)N[C@@H]3CCN(CC4CCCC4)C3)cc1C)CC2` yielded a concentration for half-maximal inhibition (IC50) below 600 nM.
In the case of `CC(=O)Nc1nc2c(s1)-c1c(c(C3CC3)nn1C1CCN(C(=O)C3CCN(CC4CCCC4)CC3)CC1)CC2`, the concentration for half-maximal inhibition (IC50) is below 600 nM.
Compound `CC(=O)Nc1nc2c(s1)-c1c(c(C3CC3)nn1-c1ccc(C(=O)N3CC[C@H](CN4CCCC4)C3)cc1Cl)CC2` registered an IC50 below 600 nM.
As to `CC(=O)Nc1nc2c(s1)-c1c(c(C3CC3)nn1-c1ccc(C(=O)N3CCC(N(C)C4CCCC4)CC3)c(Cl)c1)CC2`, the IC50 is below 600 nM.
As to `CC(=O)Nc1nc2c(s1)-c1c(c(C3CC3)nn1-c1ccc(C(=O)NC[C@H]3CCN(CC4CCCC4)C3)c(Cl)c1)CC2`, the concentration for half-maximal inhibition (IC50) was below 600 nM.
Take `CC(=O)Nc1nc2c(s1)-c1c(c(C3CC3)nn1-c1ccc(C(=O)NC3CCN(C4CCCC4)CC3)c(F)c1)CC2`: the IC50 is below 600 nM.
`CC(=O)Nc1nc2c(s1)-c1c(c(C3CC3)nn1C1CCN(C(=O)N3CCC(N4CCCC4)CC3)CC1)CC2`: the IC50 is below 600 nM.
`CC(=O)Nc1nc2c(s1)-c1c(c(C3CC3)nn1-c1ccc(C(=O)N[C@@H]3CN4CCC3CC4)c(Cl)c1)CC2`: the 50% inhibitory concentration (IC50) was below 600 nM.
On to `CC(=O)Nc1nc2c(s1)-c1c(c(C3(C)CC3)nn1-c1ccccc1Cl)CC2`, for which the IC50 is below 600 nM.
Under `CC(=O)Nc1nc2c(s1)-c1c(c(C3CC3)nn1C1CCC(C(=O)N(C)[C@H]3CC[C@H](N4CCCC4)CC3)CC1)CC2` (some centres undefined) stands below 600 nM; under `CC(=O)Nc1nc2c(s1)-c1c(c(C3CCCC3)nn1-c1ccc(C(=O)N(C)[C@H]3CC[C@@H](N4CCCC4)CC3)cc1Cl)CC2`, below 600 nM.
The compound `CCCN1CC[C@@H](NC(=O)c2ccc(-n3nc(C4CC4)c4c3-c3sc(NC(C)=O)nc3CC4)c(F)c2)C1` yielded a half-maximal inhibitory concentration (IC50) below 600 nM.
On to `CC(=O)Nc1nc2c(s1)-c1c(c(C3CC3)nn1-c1ccc(C(=O)N3CCC(N(C)C4CCCC4)CC3)c(C)c1)CC2`, for which the IC50 is below 600 nM.
`CC(=O)Nc1nc2c(s1)-c1c(c(C3CC3)nn1-c1ccc(C(=O)N(C)[C@H]3CC[C@@H](N(C)CC4CC4)CC3)cc1Cl)CC2` showed an IC50 below 600 nM.
Take `CC(=O)Nc1nc2c(s1)-c1c(c(C3CC3)nn1-c1ccc(C(=O)N[C@H]3CC[C@@H](N(C)CC4CC4)CC3)c(F)c1)CC2`: the half-maximal inhibitory concentration (IC50) is below 600 nM.
`CC(=O)Nc1nc2c(s1)-c1c(c(C3CC3)nn1-c1ccc(C(=O)N[C@H]3CC[C@@H](N(C)CC4CC4)CC3)c(Cl)c1)CC2` returned an IC50 below 600 nM.
For the compound `CCCN1CCC(CNc2ccc(-n3nc(C4CC4)c4c3-c3sc(NC(C)=O)nc3CC4)c(Cl)c2)CC1`, the half-maximal inhibitory concentration (IC50) is below 600 nM.
In turn, `COc1cc(-n2nc(C3CC3)c3c2-c2sc(NC(C)=O)nc2CC3)ccc1C(=O)N1CCC(N2CCCC2)CC1` showed an IC50 below 600 nM.
In the case of `CC(=O)Nc1nc2c(s1)-c1c(c(C3CC3)nn1-c1ccc(NCC3CCNCC3)cc1Cl)CC2`, the IC50 was below 600 nM.
Under `CC(=O)Nc1nc2c(s1)-c1c(c(C3CC3)nn1-c1ccc(C(=O)N(C)[C@@H]3CCN(C4CCCC4)C3)cc1C)CC2` stands below 600 nM; under `CC(=O)Nc1nc2c(s1)-c1c(c(C3CC3)nn1-c1ccc(CC(=O)N(C)[C@H]3CC[C@@H](N4CCCC4)CC3)cc1Cl)CC2`, below 600 nM.
As to `CC(=O)Nc1nc2c(s1)-c1c(c(C3CC3)nn1-c1ccc(C(=O)N3CCC(N(C)C4CCCC4)CC3)cc1Cl)CC2`, the IC50 was below 600 nM.
`CC(=O)Nc1nc2c(s1)-c1c(c(C3CCC3)nn1-c1ccc(C(=O)NC3CCN(C4CCCC4)CC3)cc1Cl)CC2` displayed an IC50 below 600 nM.
As for `CC(=O)Nc1nc2c(s1)-c1c(c(C3CC3)nn1-c1ccc(C(=O)N[C@@H]3CCN(C4CCCC4)C3)cc1F)CC2`, the 50% inhibitory concentration (IC50) is below 600 nM.
As for `CC(=O)Nc1nc2c(s1)-c1c(c(C3CC3)nn1-c1ccc(C(=O)NC[C@H]3CCNC3)c(Cl)c1)CC2`, the IC50 was below 600 nM.
In turn, `CC(=O)Nc1nc2c(s1)-c1c(c(C3CC3)nn1C1CCN(C(=O)N3CCN(C(C)C)CC3)CC1)CC2` came in with an IC50 below 600 nM.
On to `CC(=O)Nc1nc2c(s1)-c1c(c(C3CCC3)nn1-c1ccc(C(=O)NC3CCN(C(C)C)CC3)cc1Cl)CC2`, for which the half-maximal inhibitory concentration (IC50) was below 600 nM.
For `CC(=O)Nc1nc2c(s1)-c1c(c(C3CC3)nn1-c1ccc(NC(=O)[C@H]3CC[C@@H](N4CCCC4)CC3)cc1Cl)CC2` the value was below 600 nM; for `COc1cc(-n2nc(C3CC3)c3c2-c2sc(NC(C)=O)nc2CC3)ccc1C(=O)N[C@H]1CC[C@@H](N2CCCC2)CC1`, below 600 nM.
Under `CC(=O)Nc1nc2c(s1)-c1c(c(C3CC3)nn1-c1ccc(C(=O)N[C@H]3CC[C@@H](N(C)CC4CCCC4)CC3)c(Cl)c1)CC2` stands below 600 nM; under `CC(=O)Nc1nc2c(s1)-c1c(c(C3CC3)nn1-c1ccc(C(=O)N[C@H]3CC[C@@H](N(C)CC4CC4)CC3)cc1Cl)CC2`, below 600 nM.
